Test results reported in patent US11571411B2, “Use of a bisamide derivative of malonic acid for treating allergic and other diseases in humans and animals” (PHARMENTERPRISES ALLERGY LLC, priority 2018, dated 2023).
pKi: −log10 of the molar value.

Tests used:
[1] = test system: histamine-induced nasal congestion model; test: Histamine-induced nasal congestion model in dogs, nasal administration of 1% solution; format: in vivo, Beagle dogs; conditions: 1% solution intranasally
Procedure: A histamine-induced nasal congestion model in dogs was performed according to the standard procedure [Tiniakov R. L., Tiniakova O. P., McLeod R. L., Hey J. A., Yeates D. B. Canine model of nasal congestion and allergic rhinitis//J Appl Physiol. 2003. V.94(5). P.1821-1828]. Beagle dogs were injected to the nasal cavity with a 5% histamine solution in a volume of 250 μl/nostril. The volume of the nasal cavity of the right and left nostrils was measured using a rhinometer before and 5, 10, 15, 20, 30, 40, 50 and 60 minutes after administration of histamine. Five experiments were carried out in which Compound I was administered intranasally once in the form of a 1% solution in a volume of 50 μl at different time periods: 1) 5 minutes after the administration of histamine; 2) right before administration of histamine; 3) 3 hours before administration of histamine; 4) […] administration of histamine; and 5) 8 hours before administration of histamine.

[2] = target: T1, human histamine receptor type 3 (Homo sapiens, UniProt Q9Y5N1); test: Binding of radiolabeled ligand [3H]Nα-methylhistamine to histamine receptor type 3; conditions: CHO cells, [3H]Nα-methylhistamine (1 nM)
T1 construct: expressed in transfected cells; host or cells: CHO cells

[3] = test system: histamine-induced nasal congestion model; test: Histamine-induced nasal congestion model in guinea pigs, nasal administration of 1% solution; format: in vivo, guinea pig; conditions: for Resistance in nasal passages, AUC: 1% solution once intranasally, AUC 0-15 minutes
Procedure: A histamine-induced nasal congestion model in guinea pigs was performed according to the standard procedure [Slack R J1, Russell L J, Hall D A, Luttmann M A, Ford A J, Saunders K A, Hodgson S T, Connor H E, Browning C, Clark K L. Pharmacological characterization of GSK1004723, a novel, long-acting antagonist at histamine H(1) and H(3) receptors//Br J Pharmacol. 2011. V.164(6). P.1627-1641]. Guinea pigs were anesthetized, the trachea was isolated, and a cannula was inserted through it into the nasopharynx. The cannula was connected to a blood pressure sensor and artificial respirator (Ugo Basile). A 0.2% solution of histamine was inhaled for 3 minutes. The resistance to air flow in the nasal passages was assessed within 15 minutes after the end of inhalation of the histamine solution. Compound I was administered to guinea pigs once intranasally in the form of a 1% solution (10 μl/nostril) 1 hour and 4 hours before the inhalation of histamine.

[4] = test system: ovalbumin-induced allergic rhinitis model; test: Ovalbumin-induced allergic rhinitis model in guinea pigs, nasal administration of 1% solution; format: in vivo, guinea pig; conditions: for Number of eosinophils per 1 μL of lavage fluid / Number of nose scratchings / Number of sneezes: 1% solution once intranasally
Procedure: Int Immunopharmacol. 2013. V.17(1). P.18-25]. Guinea pigs (250-300 g) were immunized with 4× (on days 0, 7, 14 and 21) intraperitoneal administration of a mixture of ovalbumin (100 μg/pig) and aluminum hydroxide (5 mg/pig), diluted and suspended in saline. On day 28 of the study, an ovalbumin solution (60 mg/ml) was injected intranasally to the animals, 20 μl into each nostril. On day 35, after shaving the skin on the back, the animals were injected intradermally with an ovalbumin solution (200 μg/ml, 25 μl). […] On day 42 of the study, an ovalbumin solution (60 mg/ml, 20 μl/nostril) was administered intranasally. A group of sham-immunized animals was formed in order to control the formation of allergic inflammation: the pigs received an aluminum hydroxide solution (5 mg/pig) on days 0, 7, 14 and 21, a saline solution on days 28 and 35, and an ovalbumin solution (60 mg/ml, 20 μl/nostril) on day 42.
A 1% solution of Compound I was administered to the animals intranasally once 1 hour or 3 hours before intranasal administration of ovalbumin in a volume of 10 μl/nostril. Clinical manifestations of rhinitis were assessed within 2 hours after the last administration of ovalbumin: the numbers of sneezes and nose scratchings were counted. In addition, eosinophils were counted in the nasal lavage fluid.

[5] = target: T2, human histamine receptor type 4 (Homo sapiens, UniProt Q9H3N8); test: Binding of radiolabeled ligand [3H] histamine to histamine receptor type 4; conditions: HEK-293 cells, [3H] histamine (10 nM)
T2 construct: expressed in transfected cells; host or cells: HEK-293 cells

[6] = test system: ovalbumin-induced allergic rhinitis model; test: Ovalbumin-induced allergic rhinitis model in guinea pigs, oral administration; format: in vivo, guinea pig; conditions: intragastrically; for Number of nose scratchings / Number of sneezes: within 2 hours after ovalbumin
Procedure: Int Immunopharmacol. 2013. V.17(1). P.18-25]. Guinea pigs (250-300 g) were immunized with 4× (on days 0, 7, 14 and 21) intraperitoneal administration of a mixture of ovalbumin (100 μg/pig) and aluminum hydroxide (5 mg/pig), diluted and suspended in saline. On day 28 of the study, an ovalbumin solution (60 mg/ml) was injected intranasally to the animals, 20 μl into each nostril. On day 35, after shaving the skin on the back, the animals were intradermally injected with an ovalbumin solution (200 μg/ml, 25 μl). […] On day 42 of the study, an ovalbumin solution (60 mg/ml, 20 μl/nostril) was administered intranasally. A group of sham-immunized animals was formed in order to control the formation of allergic inflammation: the pigs received an aluminum hydroxide solution (5 mg/pig) on days 0, 7, 14 and 21, a saline solution on days 28 and 35, and an ovalbumin solution (60 mg/ml, 20 μl/nostril) on day 42. Table 1 presents data on clinical manifestations of pathology and the number of eosinophils in the lavage fluid in guinea pigs on the allergic rhinitis experimental model after oral administration (M±m, n=10)
Compound I was administered to animals intragastrically 48, and 1 hour before intranasal administration of ovalbumin. Clinical manifestations of rhinitis were assessed within 2 hours after the last administration of ovalbumin: the numbers of sneezes and nose scratchings were counted. In addition, eosinophils were counted in the nasal lavage fluid.

[7] = 1 hour before the last administration of ovalbumin
[8] = 3 hours before the last administration of ovalbumin

T2 sequence (Q9H3N8 whole entry): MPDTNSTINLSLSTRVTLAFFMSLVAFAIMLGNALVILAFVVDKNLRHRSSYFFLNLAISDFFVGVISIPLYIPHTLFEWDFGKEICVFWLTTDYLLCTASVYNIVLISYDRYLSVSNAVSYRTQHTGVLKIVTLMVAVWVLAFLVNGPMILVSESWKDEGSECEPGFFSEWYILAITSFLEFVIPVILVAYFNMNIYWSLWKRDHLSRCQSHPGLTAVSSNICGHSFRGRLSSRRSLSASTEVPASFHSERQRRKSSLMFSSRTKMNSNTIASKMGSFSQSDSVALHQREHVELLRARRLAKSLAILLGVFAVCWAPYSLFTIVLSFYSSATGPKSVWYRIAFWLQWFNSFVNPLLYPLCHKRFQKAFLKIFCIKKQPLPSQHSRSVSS
T1 sequence (Q9Y5N1 whole entry): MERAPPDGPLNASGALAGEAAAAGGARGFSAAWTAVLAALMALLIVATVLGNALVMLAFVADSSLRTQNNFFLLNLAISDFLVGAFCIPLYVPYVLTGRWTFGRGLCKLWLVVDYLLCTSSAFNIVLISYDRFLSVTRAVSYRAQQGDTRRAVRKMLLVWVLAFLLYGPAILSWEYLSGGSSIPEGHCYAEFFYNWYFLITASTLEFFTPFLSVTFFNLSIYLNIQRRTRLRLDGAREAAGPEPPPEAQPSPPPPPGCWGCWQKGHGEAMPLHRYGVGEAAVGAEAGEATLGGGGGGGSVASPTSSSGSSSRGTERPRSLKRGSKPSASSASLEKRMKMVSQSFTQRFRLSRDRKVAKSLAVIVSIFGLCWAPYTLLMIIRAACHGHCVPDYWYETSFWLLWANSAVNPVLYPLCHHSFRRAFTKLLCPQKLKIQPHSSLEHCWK

O=C(CC(=O)NCCc1cnc[nH]1)NCCc1cnc[nH]1 [Compound I, N,N′-bis(2-(1H-imidazol-5-yl)ethyl)malonamide]
duration of the therapeutic effect [1]: at least 8 hours | onset time of the therapeutic effect [1]: no more than 5 minutes | pKi [2]: 5.57 | duration of the therapeutic effect ([3]; 1% solution intranasally, guinea pigs, histamine-induced nasal congestion): at least 4 hours | Resistance in nasal passages, AUC ([3]; 1 hour before histamine inhalation): 317.95 ± 24.49*& see H2O×c | Resistance in nasal passages, AUC ([3]; 3 hours before histamine inhalation): 281.75 ± 52.44*& see H2O×c | duration of the therapeutic effect ([4]; 1% solution intranasally, guinea pigs, allergic rhinitis): at least 3 hours | Number of eosinophils per 1 μL of lavage fluid [4, 7]: 1416.9 ± 126.8*#& per 1 μL | Number of nose scratchings [4, 7]: 14.5 ± 4.4& | Number of sneezes [4, 7]: 3.1 ± 1.2#& | Number of eosinophils per 1 μL of lavage fluid [4, 8]: 1490.1 ± 241.0*#& per 1 μL | Number of nose scratchings [4, 8]: 10.7 ± 2.1#& | Number of sneezes [4, 8]: 3.9 ± 1.5& | pKi [5]: 4.80 | Number of eosinophils per 1 μL of lavage fluid ([6]; 0.014 mg/kg): 1300.5 ± 93.8*#& per 1 μL | Number of nose scratchings ([6]; 0.014 mg/kg): 16.1 ± 2*#& | Number of sneezes ([6]; 0.014 mg/kg): 11.6 ± 1.4*#& | Number of eosinophils per 1 μL of lavage fluid ([6]; 0.042 mg/kg): 1219.6 ± 159.4*#& per 1 μL | Number of nose scratchings ([6]; 0.042 mg/kg): 16.2 ± 2.7*& | Number of sneezes ([6]; 0.042 mg/kg): 10.5 ± 1.2*#& | Number of eosinophils per 1 μL of lavage fluid ([6]; 0.14 mg/kg): 1141.5 ± 128.5*#& per 1 μL | Number of nose scratchings ([6]; 0.14 mg/kg): 13.3 ± 1.3*& | Number of sneezes ([6]; 0.14 mg/kg): 8.3 ± 0.9*#& | Number of eosinophils per 1 μL of lavage fluid ([6]; 0.42 mg/kg): 1069.0 ± 139.4*#& per 1 μL | Number of nose scratchings ([6]; 0.42 mg/kg): 16.2 ± 2.0*#& | Number of sneezes ([6]; 0.42 mg/kg): 5.2 ± 0.6*& | Number of eosinophils per 1 μL of lavage fluid ([6]; 1.4 mg/kg): 984.1 ± 111.0*#& per 1 μL | Number of nose scratchings ([6]; 1.4 mg/kg): 14.4 ± 3.3*& | Number of sneezes ([6]; 1.4 mg/kg): 6.9 ± 0.8*#&
